# Organism: Rattus norvegicus
# Assay: DrugMatrix - Regimen: Daily Repeat
# Type: toxicity, organism-based, Sprague-Dawley
# Set-up: regimen Daily Repeat, gender Male, age 6-8 weeks
# Conditions: in vivo, iv, vehicle 100 % SALINE; for ABSOLUTE BASOPHIL / ABSOLUTE EOSINOPHIL / ABSOLUTE LYMPHOCYTE / ABSOLUTE MONOCYTE / ABSOLUTE SEGMENTED NEUTROPHIL / BASOPHIL / EOSINOPHIL / ERYTHROCYTE COUNT / HEMATOCRIT / HEMOGLOBIN / LEUKOCYTE COUNT / LYMPHOCYTE / MEAN CORPUSCULAR HEMOGLOBIN / MEAN CORPUSCULAR HEMOGLOBIN CONCENTRATION / MEAN CORPUSCULAR VOLUME / MONOCYTE / NEUTROPHIL / NUCLEATED RED BLOOD CELLS / PLATELET COUNT: tissue Blood; for ALANINE AMINOTRANSFERASE / ALBUMIN / ALKALINE PHOSPHATASE / ASPARTATE AMINOTRANSFERASE / BLOOD UREA NITROGEN / CARBON DIOXIDE / CHOLESTEROL / CREATINE PHOSPHOKINASE / CREATININE / GLUCOSE / LACTATE DEHYDROGENASE / LIPASE / PHOSPHORUS / POTASSIUM / SODIUM / TOTAL BILIRUBIN / TOTAL PROTEIN / URIC ACID: tissue Plasma
# [1] = 18 mg/kg, 120 h, dose level High, time 5 day
# [2] = […], 72 h, dose 7.5 mg/Kg, dose level Low, time 3 day
# [3] = […], 120 h, dose 7.5 mg/Kg, dose level Low, time 5 day
smiles,measurement,setting,value
N=C(N)c1ccc(OCCCCCOc2ccc(C(=N)N)cc2)cc1 [PENTAMIDINE],ABSOLUTE BASOPHIL,[1],0 CELLS/uL
same,ABSOLUTE EOSINOPHIL,[1],0 CELLS/uL
same,ABSOLUTE LYMPHOCYTE,[1],15017 CELLS/uL
same,ABSOLUTE MONOCYTE,[1],444.33 CELLS/uL
same,ABSOLUTE SEGMENTED NEUTROPHIL,[1],972 CELLS/uL
same,BASOPHIL,[1],0%
same,EOSINOPHIL,[1],0%
same,ERYTHROCYTE COUNT,[1],6.15 x10E6/uL
same,HEMATOCRIT,[1],37.9%
same,HEMOGLOBIN,[1],14.2 G/DL
same,LEUKOCYTE COUNT,[1],16.43 x10E3/uL
same,LYMPHOCYTE,[1],91.33%
same,MEAN CORPUSCULAR HEMOGLOBIN,[1],23.07 pg
same,MEAN CORPUSCULAR HEMOGLOBIN CONCENTRATION,[1],37.5 G/DL
same,MEAN CORPUSCULAR VOLUME,[1],61.53 fL
same,MONOCYTE,[1],2.67%
same,NEUTROPHIL,[1],6%
same,NUCLEATED RED BLOOD CELLS,[1],0 /100WBC
same,PLATELET COUNT,[1],1455 x10E3/uL
same,ALANINE AMINOTRANSFERASE,[1],44.33 u/L
same,ALBUMIN,[1],4.3 G/DL
same,ALKALINE PHOSPHATASE,[1],288.33 u/L
same,ASPARTATE AMINOTRANSFERASE,[1],71 u/L
same,BLOOD UREA NITROGEN,[1],13.67 mg/dL
same,CARBON DIOXIDE,[1],26.67 mmol/L
same,CHOLESTEROL,[1],57 mg/dL
same,CREATINE PHOSPHOKINASE,[1],246.67 u/L
same,CREATININE,[1],0.22 mg/dL
same,GLUCOSE,[1],166.33 mg/dL
same,LACTATE DEHYDROGENASE,[1],175 u/L
same,LIPASE,[1],8.67 u/L
same,PHOSPHORUS,[1],11.6 mg/dL
same,POTASSIUM,[1],5.78 MEQ/L
same,SODIUM,[1],146.7 MEQ/L
same,TOTAL BILIRUBIN,[1],0.2 mg/dL
same,TOTAL PROTEIN,[1],6.13 G/DL
same,URIC ACID,[1],1.93 mg/dL
same,ABSOLUTE BASOPHIL,[2],0 CELLS/uL
same,ABSOLUTE EOSINOPHIL,[2],0 CELLS/uL
same,ABSOLUTE LYMPHOCYTE,[2],12540 CELLS/uL
same,ABSOLUTE MONOCYTE,[2],234 CELLS/uL
same,ABSOLUTE SEGMENTED NEUTROPHIL,[2],1759.33 CELLS/uL
same,BASOPHIL,[2],0%
same,EOSINOPHIL,[2],0%
same,ERYTHROCYTE COUNT,[2],5.88 x10E6/uL
same,HEMATOCRIT,[2],37.37%
same,HEMOGLOBIN,[2],14.03 G/DL
same,LEUKOCYTE COUNT,[2],14.53 x10E3/uL
same,LYMPHOCYTE,[2],86.67%
same,MEAN CORPUSCULAR HEMOGLOBIN,[2],23.9 pg
same,MEAN CORPUSCULAR HEMOGLOBIN CONCENTRATION,[2],37.53 G/DL
same,MEAN CORPUSCULAR VOLUME,[2],63.63 fL
same,MONOCYTE,[2],1.67%
same,NEUTROPHIL,[2],11.67%
same,NUCLEATED RED BLOOD CELLS,[2],0 /100WBC
same,PLATELET COUNT,[2],1241.67 x10E3/uL
same,ALANINE AMINOTRANSFERASE,[2],54.33 u/L
same,ALBUMIN,[2],4.63 G/DL
same,ALKALINE PHOSPHATASE,[2],393 u/L
same,ASPARTATE AMINOTRANSFERASE,[2],80.67 u/L
same,BLOOD UREA NITROGEN,[2],15.33 mg/dL
same,CARBON DIOXIDE,[2],24.67 mmol/L
same,CHOLESTEROL,[2],69.67 mg/dL
same,CREATINE PHOSPHOKINASE,[2],265 u/L
same,CREATININE,[2],0.17 mg/dL
same,GLUCOSE,[2],136.67 mg/dL
same,LACTATE DEHYDROGENASE,[2],184 u/L
same,LIPASE,[2],9 u/L
same,PHOSPHORUS,[2],10.97 mg/dL
same,POTASSIUM,[2],6.64 MEQ/L
same,SODIUM,[2],143.8 MEQ/L
same,TOTAL BILIRUBIN,[2],0.23 mg/dL
same,TOTAL PROTEIN,[2],5.83 G/DL
same,URIC ACID,[2],1.97 mg/dL
same,ABSOLUTE BASOPHIL,[3],0 CELLS/uL
same,ABSOLUTE EOSINOPHIL,[3],183 CELLS/uL
same,ABSOLUTE LYMPHOCYTE,[3],14369.67 CELLS/uL
same,ABSOLUTE MONOCYTE,[3],485 CELLS/uL
same,ABSOLUTE SEGMENTED NEUTROPHIL,[3],1795.67 CELLS/uL
same,BASOPHIL,[3],0%
same,EOSINOPHIL,[3],1%
same,ERYTHROCYTE COUNT,[3],5.98 x10E6/uL
same,HEMATOCRIT,[3],38.47%
same,HEMOGLOBIN,[3],14.17 G/DL
same,LEUKOCYTE COUNT,[3],16.83 x10E3/uL
same,LYMPHOCYTE,[3],85%
same,MEAN CORPUSCULAR HEMOGLOBIN,[3],23.7 pg
same,MEAN CORPUSCULAR HEMOGLOBIN CONCENTRATION,[3],36.83 G/DL
same,MEAN CORPUSCULAR VOLUME,[3],64.37 fL
same,MONOCYTE,[3],3%
same,NEUTROPHIL,[3],11%
same,NUCLEATED RED BLOOD CELLS,[3],0 /100WBC
same,PLATELET COUNT,[3],1425 x10E3/uL
same,ALANINE AMINOTRANSFERASE,[3],42.67 u/L
same,ALBUMIN,[3],4.57 G/DL
same,ALKALINE PHOSPHATASE,[3],364.67 u/L
same,ASPARTATE AMINOTRANSFERASE,[3],84.33 u/L
same,BLOOD UREA NITROGEN,[3],18.67 mg/dL
same,CARBON DIOXIDE,[3],27.67 mmol/L
same,CHOLESTEROL,[3],76.67 mg/dL
same,CREATINE PHOSPHOKINASE,[3],325 u/L
same,CREATININE,[3],0.23 mg/dL
same,GLUCOSE,[3],145 mg/dL
same,LACTATE DEHYDROGENASE,[3],461.33 u/L
same,LIPASE,[3],9 u/L
same,PHOSPHORUS,[3],11.17 mg/dL
same,POTASSIUM,[3],6.1 MEQ/L
same,SODIUM,[3],143.03 MEQ/L
same,TOTAL BILIRUBIN,[3],0.23 mg/dL
same,TOTAL PROTEIN,[3],6.3 G/DL
same,URIC ACID,[3],1.33 mg/dL

# Reference: ChEMBL document CHEMBL3885881, “DrugMatrix”
